# Assays:
# bcl-2 protein = assay type: cell-based
# HL60 bcl-2 cells [1] = assay type: cell-based
# HL60 neo cells [2] = assay: cells; assay type: cell-based; settings: Homo sapiens, HL-60, 240 h, read-out: inhibition of cell growth
# HT29 cells = assay type: cell-based, Human
# HL60 neo cells [3] = assay type: cell-based
# HL60 bcl-2 cells [4] = assay: cells; assay type: cell-based
# SCC VII cells = assay type: cell-based, murine
compound,measurement,setting,value
O=C(CBr)N1CC([N+](=O)[O-])([N+](=O)[O-])C1 [ABDNAZ],bcl-2 protein expression,bcl-2 protein,inhibited bcl-2 protein expression in both neo and bcl-2 cells in a dose-dependent manner
same,apoptosis,HL60 bcl-2 cells [1],78%
same,"apoptotic cell death, peak",HL60 bcl-2 cells [1],~40%
same,inhibition at 5 µM,HL60 neo cells [2],> 95%
same,"intracellular ROS generation, combined treatment of ABDNAZ and radiation",HT29 cells,synergistically induced intracellular ROS generation
same,production of ROS,HT29 cells,"dose, time and cell line dependent"
same,time of peak ROS production,HT29 cells,24 h
same,apoptosis,HL60 neo cells [3],95%
same,"apoptotic cell death, peak",HL60 neo cells [3],~40%
same,sensitivity of HL60 bcl-2 cells compared with neo cells,HL60 bcl-2 cells [4],as sensitive as neo cells
same,inhibition at 5 µM,"HL60 bcl-2 cells [4]; Homo sapiens, HL-60, 240 h, read-out: inhibition of cell growth",> 95%
same,"intracellular ROS generation, combined treatment of ABDNAZ and radiation",SCC VII cells,synergistically induced intracellular ROS generation
same,levels of ROS compared with HT29 cells,SCC VII cells,significantly higher than that induced in HT29 cells
same,production of ROS,SCC VII cells,"dose, time and cell line dependent"
same,time of peak ROS production,SCC VII cells,2 h

# Reference: US11925617B2 (priority 2005, dated 2024)
